These results are taken from ChEMBL document CHEMBL1140251, “Rhodanine derivatives as inhibitors of JSP-1” (Bioorg Med Chem Lett, 2005).

As usually defined, the IC50 is the midpoint of a concentration-inhibition curve.

The target of test [1] is T1, Dual specificity protein phosphatase 22 (Homo sapiens, UniProt Q9NRW4).
T1 sequence (Q9NRW4 whole entry): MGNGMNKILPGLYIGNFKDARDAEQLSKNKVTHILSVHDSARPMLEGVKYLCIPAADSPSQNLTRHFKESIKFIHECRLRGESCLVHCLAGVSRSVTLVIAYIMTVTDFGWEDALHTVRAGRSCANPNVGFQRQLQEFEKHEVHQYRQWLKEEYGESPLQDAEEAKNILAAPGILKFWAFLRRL
Nature of the test: Inhibition of JNK-stimulating phosphatase-1 (JSP-1).

The target in test [2] is Dual specificity protein phosphatase 3 (Homo sapiens, UniProt P51452). Nature of the test: In vitro inhibitory concentration against VH1-related (VHR) phosphatase.
Chain of Dual specificity protein phosphatase 3 (P51452 whole entry): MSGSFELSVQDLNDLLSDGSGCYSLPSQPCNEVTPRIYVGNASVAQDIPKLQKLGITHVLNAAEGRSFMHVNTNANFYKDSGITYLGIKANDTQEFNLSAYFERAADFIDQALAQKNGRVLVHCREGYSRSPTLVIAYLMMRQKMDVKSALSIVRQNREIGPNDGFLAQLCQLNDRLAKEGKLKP

`O=C1/C(=C/c2ccccc2)SC(=S)N1c1ccc(CP(=O)(O)O)cc1`: the IC50 in test [1] was 10 µM; in test [2], more than 200 µM. The corresponding values for `O=C(O)Cc1cccc(N2C(=O)/C(=C/c3ccccc3)SC2=S)c1` are 20 µM and more than 200 µM. For `O=C1/C(=C/c2ccccc2)SC(=S)N1c1ccc(S(=O)(=O)O)cc1`, the IC50 was 11 µM in test [1] and more than 200 µM in test [2]. `Cc1cc(C(=O)O)ccc1N1C(=O)/C(=C/c2ccccc2)SC1=S`: the results for the IC50 in test [1] and in test [2] were 66 µM and more than 200 µM, respectively. `O=C(O)c1ccc(N2C(=O)/C(=C/c3ccc(F)cc3)OC2=S)cc1` displayed an IC50 in test [1] of more than 200 µM. Regarding `COc1ccc(/C=C2\SC(=S)N(c3cccc(C(=O)O)c3)C2=O)cc1`, the IC50 was 26 µM in test [1] and more than 200 µM in test [2]. `O=C(O)c1ccc(N2C(=O)/C(=C/c3ccc(F)cc3)NC2=S)cc1`: the IC50 in test [1] is more than 200 µM. Regarding `O=C(O)c1ccc(N2C(=O)S/C(=C\c3ccc(F)cc3)C2=O)cc1`, the IC50 in test [1] was more than 200 µM. `O=C(O)c1ccccc1N1C(=O)/C(=C/c2ccccc2)SC1=S`: the half-maximal inhibitory concentration (IC50) in test [1] and in test [2] was more than 200 µM throughout. As for `Cc1ccc(/C=C2\SC(=S)N(c3cccc(C(=O)O)c3)C2=O)cc1`, the IC50 amounted to 16 µM in test [1] and 123 µM in test [2]. Taken in the same sequence, the figures for `O=C(O)c1cc(C(=O)O)cc(N2C(=O)/C(=C/c3ccccc3)SC2=S)c1` were 103 µM and more than 200 µM. With `O=C(O)c1ccc(N2C(=O)/C(=C/c3ccccc3)SC2=S)cc1O`, the results for the IC50 in test [1] and in test [2] were 13 µM and 45 µM, respectively. `O=C(O)c1ccc(/C=C2\SC(=S)N(c3cccc(C(=O)O)c3)C2=O)cc1`: the IC50 in test [1] and in test [2] was more than 200 µM throughout.

Consider `O=C(O)c1ccc(N2C(=O)/C(=C/c3ccccc3)SC2=S)cc1`, for which the IC50 in test [1] was 18 µM; in test [2], more than 200 µM. The corresponding values for `O=C(O)c1cccc(N2C(=O)/C(=C/c3ccc(O)cc3)SC2=S)c1` are 157 µM and more than 200 µM.

`O=C(O)c1ccc(N2C(=O)/C(=C/c3ccc(F)cc3)SC2=S)cc1` had an IC50 in test [1] of 4.2 µM. On to `O=C(O)c1cc(N2C(=O)/C(=C/c3ccccc3)SC2=S)ccc1O`, for which the figures for the IC50 in test [1] and in test [2] were 13 µM and 130 µM, respectively. `CN1C(=S)N(c2ccc(C(=O)O)cc2)C(=O)/C1=C/c1ccc(F)cc1`: in test [1], the IC50 is more than 200 µM. For the compound `CC/C=C1\SC(=S)N(c2cccc(C(=O)O)c2)C1=O`, the IC50 is 59 µM in test [1] and more than 200 µM in test [2]. The corresponding values for `O=C(O)c1cccc(N2C(=O)/C(=C/C3CCCCC3)SC2=S)c1` are 7.3 µM and more than 200 µM.

For the compound `O=C(O)Cc1ccc(N2C(=O)/C(=C/c3ccccc3)SC2=S)cc1`, the IC50 was determined as 20 µM in test [1] and 100 µM in test [2]. For the compound `O=C1/C(=C/c2ccccc2)SC(=S)N1c1ccccc1`, in test [1], the IC50 was more than 200 µM. The same measure, in the same setting: in the case of `COC(=O)c1ccc(N2C(=O)/C(=C/c3ccccc3)SC2=S)cc1` it was more than 200 µM. Take `O=C(O)c1ccc(CN2C(=O)/C(=C/c3ccccc3)SC2=S)cc1`: the IC50 was 60 µM in test [1] and more than 200 µM in test [2]. The corresponding values for `O=C(O)c1cccc(N2C(=O)/C(=C/c3ccc(F)cc3)SC2=S)c1` are 1.3 µM and more than 50 µM. Taken in the same sequence, the figures for `O=C(O)c1cccc(N2C(=O)/C(=C/c3ccc([N+](=O)[O-])cc3)SC2=S)c1` were 2.6 µM and more than 50 µM. Consider `O=C(O)c1cccc(N2C(=O)/C(=C/c3ccccc3)SC2=S)c1` (stereo in doubt; 5m), for which the IC50 in test [1] was 6.6 µM; in test [2], more than 100 µM. Taken in the same sequence, the figures for `O=C(O)c1cccc(N2C(=O)/C(=C/c3ccccc3)SC2=S)c1` (stereo in doubt; 5t) were 7 µM and more than 100 µM.
